Test results from patent publication US6686350B1, “Cell adhesion inhibitors” (Biogen, Inc., priority 1996, dated 2004).

Each molecule was assayed against T1, VLA-4 (Homo sapiens, UniProt P05556+P13612) (assay: VLA-4 direct binding assay (VCAM-IgG alkaline phosphatase conjugate binding to Jurkat cells)). Conditions: Table 1, Structure-Activity; assay and unit inferred; read-out: Act.
T1 construct: endogenous in cells; host or cells: Jurkat cells
Excerpt: A direct binding assay may also be employed to quantitate the inhibitory activity of the compounds of this invention. (“DBA”) In direct binding assays, for example, a VCAM-IgG fusion protein containing the first two immunoglobulin domains of VCAM (D1D2) attached above the hinge region of an IgG1 molecule (“VCAM 2D-IgG”), is conjugated to a marker enzyme, such as alkaline phosphatase (“AP”). The synthesis of this VCAM-IgG fusion is described in PCT publication WO 90/13300, the disclosure of which is herein incorporated by reference. The conjugation of that fusion to a marker enzyme can be achieved by cross-linking methods well-known in the art.
The VCAM-IgG enzyme conjugate is then placed in the wells of a multi-well filtration plate, such as that contained in the Millipore Multiscreen Assay System (Millipore Corp., Bedford, Mass.). Varying concentrations of the test inhibitory compound are then added to the wells followed by addition of VLA-4-expressing cells. The cells, compound and VCAM-IgG enzyme conjugate are mixed together and allowed to incubate at room temperature.
Following incubation, the wells are vacuum drained, leaving behind the cells and any bound VCAM. Quantitation of bound VCAM is determined by adding an appropriate calorimetric substrate for the enzyme conjugated to VCAM-IgG and determining the amount of reaction product. Decreased reaction product indicates increased binding inhibitory activity. The protocol is described more specifically below:
1. Block a 96 well Millipore Multiscreen Assay System filtration plate^1 with 200:l/well of blocking buffer (1×Phosphate Buffered Saline, 0.1%Tween 20, 1%BSA) for at least 1 hour at room temperature.
2. Drain the plate with the vacuum manifold, and wash with 200 μl/well of assay buffer (Tris Buffered Saline, 0.1% BSA, 2 mM glucose, 10 mM HEPES, pH 7.5) draining the plate in between. Repeat twice. Then blot the plate bottom on paper to remove excess buffer.
3. Prepare a 4 μg/ml VCAMIg-AP solution (Alkaline phosphatase coupled to VCAMIg) in assay buffer and filter with a 0.2:low protein binding syringe filter (Gelman Sciences #4454). From this stock, prepare a 0.4 μg/ml working solution of VCAMIg-AP in assay buffer. Add 25:l of 0.4 μg/ml VCAMIg-AP to every well.
5. Prepare dilutions of compounds to be tested in assay buffer. Concentrations should be 4× the desired final concentration and run in triplicate. Add 25 μl of the compound dilutions to designated wells.
7. Jurkat cells are centrifuged to remove cell culture media and washed once in assay buffer. Resuspend the washed Jurkat cells to a concentration of 8×10^6/ml in assay buffer containing 2 mM MnCl2. Pipeting the mixture up and down to ensure a uniform cell suspension. Add 50:l of cell suspension to each well except the NSB wells.
8. Gently tap the sides of the plate to mix well contents. Incubate the plate for 60 minutes at room temperature (RT).
9. Place the plate on the vacuum manifold to drain the well contents. Wash twice with 100 μl/well of wash buffer (assay buffer containing 1 mM MnCl2). Drain the plate and blot on paper towels.
10. Add 10 mg/ml of 4-Nitro phenyl phosphate to Substrate buffer (0.1M glycine, 1 mM ZnCl2, 1 mM MgCl2, pH 10.5). Add 100 μl/well and incubate for exactly 30 minutes at RT.
11. To stop the reaction, add 100 μl/well of 3N NaOH.
12. Read the 96-well plate in a Molecular Devices ELISA platereader at 405 nm. Analyze data with SoftMax software.

T1 sequence (P13612 34-1032): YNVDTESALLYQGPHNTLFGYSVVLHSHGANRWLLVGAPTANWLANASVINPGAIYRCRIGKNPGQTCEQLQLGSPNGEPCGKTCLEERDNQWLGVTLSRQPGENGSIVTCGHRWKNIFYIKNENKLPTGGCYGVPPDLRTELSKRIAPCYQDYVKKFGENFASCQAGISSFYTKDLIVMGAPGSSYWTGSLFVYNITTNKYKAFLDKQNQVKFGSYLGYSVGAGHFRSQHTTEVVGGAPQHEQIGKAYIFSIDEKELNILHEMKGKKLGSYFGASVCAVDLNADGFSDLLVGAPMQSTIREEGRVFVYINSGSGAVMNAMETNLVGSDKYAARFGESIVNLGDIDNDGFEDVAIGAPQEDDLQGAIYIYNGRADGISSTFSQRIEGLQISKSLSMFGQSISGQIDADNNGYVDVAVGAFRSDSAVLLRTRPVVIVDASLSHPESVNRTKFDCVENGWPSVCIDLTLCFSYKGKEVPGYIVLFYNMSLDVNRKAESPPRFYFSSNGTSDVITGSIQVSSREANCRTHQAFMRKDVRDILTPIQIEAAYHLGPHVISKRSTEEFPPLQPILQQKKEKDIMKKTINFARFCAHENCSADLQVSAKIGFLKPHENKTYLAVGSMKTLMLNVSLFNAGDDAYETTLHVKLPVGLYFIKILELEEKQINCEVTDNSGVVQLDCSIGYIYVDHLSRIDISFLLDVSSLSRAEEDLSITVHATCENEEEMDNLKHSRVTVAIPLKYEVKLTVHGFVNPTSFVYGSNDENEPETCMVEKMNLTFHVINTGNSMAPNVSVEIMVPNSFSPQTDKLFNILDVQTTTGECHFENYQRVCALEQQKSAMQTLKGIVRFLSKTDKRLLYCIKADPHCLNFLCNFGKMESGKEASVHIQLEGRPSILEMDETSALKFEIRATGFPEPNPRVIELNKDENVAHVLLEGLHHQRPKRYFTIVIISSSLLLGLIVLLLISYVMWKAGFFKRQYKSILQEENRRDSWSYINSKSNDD
T1 sequence (P05556 21-798): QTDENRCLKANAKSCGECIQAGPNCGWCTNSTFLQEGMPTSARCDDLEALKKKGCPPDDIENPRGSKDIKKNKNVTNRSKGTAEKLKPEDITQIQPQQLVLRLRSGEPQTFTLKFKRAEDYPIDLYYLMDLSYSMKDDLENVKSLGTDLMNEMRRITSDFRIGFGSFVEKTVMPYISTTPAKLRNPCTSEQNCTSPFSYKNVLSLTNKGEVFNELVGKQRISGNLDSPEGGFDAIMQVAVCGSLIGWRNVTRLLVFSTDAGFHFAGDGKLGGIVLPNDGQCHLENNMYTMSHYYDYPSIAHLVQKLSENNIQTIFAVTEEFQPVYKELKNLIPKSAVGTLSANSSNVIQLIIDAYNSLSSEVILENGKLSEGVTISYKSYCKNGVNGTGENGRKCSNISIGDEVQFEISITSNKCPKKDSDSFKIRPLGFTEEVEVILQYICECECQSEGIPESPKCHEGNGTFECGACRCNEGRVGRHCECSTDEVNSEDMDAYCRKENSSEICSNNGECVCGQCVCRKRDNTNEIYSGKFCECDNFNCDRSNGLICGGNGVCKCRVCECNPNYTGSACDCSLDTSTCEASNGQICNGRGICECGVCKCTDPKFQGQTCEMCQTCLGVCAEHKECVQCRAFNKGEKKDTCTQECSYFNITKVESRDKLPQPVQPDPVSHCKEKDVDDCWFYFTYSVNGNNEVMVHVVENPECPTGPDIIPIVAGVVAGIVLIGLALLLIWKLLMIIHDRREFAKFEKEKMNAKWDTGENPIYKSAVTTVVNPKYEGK

SMILES	IC50 [nM]
Cc1ccccc1NC(=O)Nc1ccc(CC(=O)Nc2cccc(CN(CCC(=O)O)C(=O)c3ccccc3)c2)cc1 [RX18]	350
Cc1ccccc1NC(=O)Nc1ccc(CC(=O)Nc2cccc(S(=O)(=O)NCCC(=O)O)c2)cc1 [RX5]	3810
COCC(C)N1C(=O)CN(CCC(=O)O)C(=O)c2cc(NC(=O)Cc3ccc(NC(=O)Nc4ccccc4C)cc3)ccc21 (stereo not drawn) [BX54]	128
COc1ccc(C(CC(=O)O)NC(=O)[C@@H](CC(=O)Nc2ccc(COc3ccccc3C)cc2)CC(C)C)cc1OC (stereo partly drawn) [SX31]	680
Cc1ccccc1NC(=O)Nc1ccc(CC(=O)Nc2ccc3c(c2)C(=O)N(CCC(=O)O)CC(=O)N3Cc2ccc(F)cc2)cc1 [BX48]	166
Cc1ccccc1NC(=O)Nc1ccc(CC(=O)Nc2ccc3c(c2)C(=O)N(CCC(=O)O)CC(=O)N3CCc2ccccc2)cc1 [BX52]	132
CC(C)CCN(CC(=O)Nc1ccccc1)C(=O)CN(CCC(=O)O)C(=O)c1ccccc1 [AX12]	4120
CC(C)CN(CC(=O)Nc1ccc(NC(=O)Nc2ccccc2)cc1)C(=O)CN(CCC(=O)O)C(=O)Cc1ccccc1 [AX24]	300
COc1ccc([C@H](CC(=O)O)NC(=O)C(CC(=O)Nc2ccc(NC(=O)Nc3ccccc3)cc2)CC(C)C)cc1OC (stereo partly drawn) [SX41]	310
COc1ccc(C(CC(=O)O)NC(=O)C(CC(=O)NCc2ccccc2)CC(C)C)cc1 (stereo not drawn) [SX6]	6750
COc1ccc(C(CC(=O)O)NC(=O)C(CC(=O)Nc2ccc(NC(=O)Nc3ccccc3C)cc2)CC(C)C)cc1 (stereo not drawn) [SX13]	3490
Cc1ccccc1NC(=O)Nc1ccc(CC(=O)Nc2cccc(S(=O)(=O)NC(C)CC(=O)O)c2)cc1 (stereo not drawn) [RX2]	10600
Cc1ccccc1NC(=O)Nc1ccc(CC(=O)Nc2cccc(OCCC(=O)O)c2)cc1 [RX19]	317
Cc1ccccc1NC(=O)Nc1ccc(CC(=O)Nc2ccc(C(=O)O)c(OCCCC(=O)O)c2)cc1 [RX17]	406
Cc1ccccc1NC(=O)Nc1ccc(NC(=O)CN(CCC(C)C)C(=O)CN(CCC(=O)O)C(=O)C2CCCCC2)cc1 [AX29]	890
Cc1ccccc1NC(=O)Nc1ccc(NC(=O)Cc2ccc3c(c2)C(=O)N(CCC(=O)O)CC(=O)N3C)cc1 [BX33]	886
Cc1ccccc1NC(=O)Nc1ccc(CC(=O)Nc2cc3c(cc2Cl)N(C)C(=O)CN(CCC(=O)O)C3=O)cc1 [BX37]	643
CCOc1cc(NC(=O)Cc2ccc(NC(=O)Nc3ccccc3C)cc2)cc(OCCCC(=O)O)c1 [RX27]	50
Cc1ccccc1NC(=O)Nc1ccc(NC(=O)CN(CCC(C)C)C(=O)CN(CCC(=O)O)C(=O)N2CCOCC2)cc1 [AX37]	60.5

SMILES	IC50 [nM]
COc1cccc(C(=O)N(CCC(=O)O)CC(=O)N(CCC(C)C)CC(=O)Nc2ccc(OCC(=O)Nc3ccccc3)cc2)c1 [AX19]	6190
Cc1ccccc1NC(=O)Nc1ccc(CC(=O)Nc2ccc3c(c2)C(=O)N(CCC(=O)O)CC(=O)N3C2CCN(Cc3ccccc3)CC2)cc1 [BX43]	273
Cc1ccccc1NC(=O)Nc1ccc(CC(=O)Nc2ccc3c(c2)C(=O)N(CCC(=O)O)CC(=O)N3Cc2ccccc2)cc1 [BX58]	116
COc1cccc(C(=O)N(CCC(=O)O)CC(=O)N(CCC(C)C)CC(=O)Nc2ccc3c(c2)C(=O)CCCC3)c1 [AX3]	15300
COc1cccc(C(=O)N(CCC(=O)O)CC(=O)N(CCC(C)C)CC(=O)Nc2ccc(C(=O)CC(=O)Nc3ccccc3Cl)cc2)c1 [AX23]	580
Cc1ccccc1NC(=O)Nc1ccc(NC(=O)CN(CCC(C)C)C(=O)CN(CCC(=O)O)C(=O)CBr)cc1 [AX36]	63.2
COc1ccc([C@H](CC(=O)O)NC(=O)C(CC(=O)Nc2ccc(CCCc3ccccc3)cc2)CC(C)C)cc1OC (stereo partly drawn) [SX14]	8240
CN1C(=O)CN(CCC(=O)O)C(=O)c2cc(NC(=O)Cc3ccc(NC(=O)c4c[nH]c5ccccc45)cc3)ccc21 [BX64]	24
Cc1ccccc1NC(=O)Nc1ccc(NC(=O)[C@@H]2CSCN2C(=O)CN(CCC(=O)O)C(=O)c2ccccc2)cc1 [AX39]	60
Cc1ccccc1NC(=O)Nc1ccc(N(C)C(=O)CCC(=O)N[C@H](C)CC(=O)O)cc1 [SX48]	195
Cc1ccccc1NC(=O)Nc1ccc(CC(=O)NCc2ccc3c(c2)C(=O)N(CCC(=O)O)CC(=O)N3C)cc1 [BX16]	5120
Cc1ccccc1NC(=O)Nc1ccc(CC(=O)Nc2ccc3c(c2)C(=O)N(CCC(=O)O)CC(=O)N3CCC(=O)O)cc1 [BX39]	480
Cc1ccccc1NC(=O)Nc1ccc(CC(=O)Nc2ccc3c(c2)C(=O)N(CCC(=O)O)CC(=O)N3C)cc1 [BX44]	257
COc1ccc(NC(=O)Cc2ccc(NC(=O)Nc3ncccc3C)cc2)cc1OCCCC(=O)O [RX7]	2300
Cc1ccccc1NC(=O)Nc1ccc(CC(=O)Nc2ccc3c(c2)C(=O)N(CCCCC(=O)O)CC(=O)N3C)cc1 [BX15]	5130
COc1ccc(C(CC(=O)O)NC(=O)[C@@H](CC(=O)Nc2ccc(NC(=O)Nc3ccccc3C)cc2)CC(C)C)cc1OC (stereo partly drawn) [SX44]	233
O=C(O)CCNC(=O)[C@@H]1CCCN(C(=O)Cc2ccc(NC(=O)Nc3ccccc3)cc2)C1 [MX1]	872
CN1C(=O)CN(CCC(=O)O)C(=O)c2cc(NC(=O)Cc3ccc(NC(=O)Cc4c[nH]c5ccccc45)cc3)ccc21 [BX11]	9050
Cc1ccccc1NC(=O)Nc1ccc(NC(=O)C2CC2C(=O)N[C@@H](CC(=O)O)c2ccc3c(c2)OCO3)cc1 (stereo partly drawn) [SX25]	810

SMILES	IC50 [nM]
Cc1ccccc1NC(=O)Nc1ccc(CC(=O)Nc2ccc3c(c2)C(=O)N(CC(C)C(=O)O)CC(=O)N3C)cc1 (stereo not drawn) [BX50]	52.3
Cc1ccccc1NC(=O)Nc1ccc(NC(=O)[C@@H]2CCCN2C(=O)CCCC(=O)O)cc1 [CX8]	480
CC1=NN(c2ccc(C(=O)Nc3ccc4c(c3)C(=O)N(CCC(=O)O)CC(=O)N4C)cc2)C(=O)C1 [BX13]	5860
CCC(CC(=O)O)N1CC(=O)N(C)c2ccc(NC(=O)Cc3ccc(NC(=O)Nc4ccccc4C)cc3)cc2C1=O (stereo not drawn) [BX60]	103
Cc1ccccc1NC(=O)Nc1ccc(CC(=O)NCc2cccc(OCCCC(=O)O)c2)cc1 [RX14]	652
Cc1ccccc1NC(=O)Nc1ccc(CC(=O)Nc2ccc3c(c2)CN(CCC(=O)O)C(=O)CN3CCC(=O)O)cc1 [BX71]	28.5
Cc1ccccc1NC(=O)Nc1ccc(CC(=O)Nc2ccc3c(c2)CN(CCC(=O)O)C(=O)CN3CCN2CCOCC2)cc1 [BX69]	31.5
Cc1ccccc1NC(=O)Nc1ccc(CC(=O)Nc2cc(OCCCC(=O)O)ccc2C(C)C)cc1 [RX10]	2040
Cc1ccccc1NC(=O)Nc1ccc(NC(=O)[C@@H]2CCCN2C(=O)CC[C@@H](C)CC(=O)O)cc1 [CX9]	332
COc1ccc(C(CC(=O)O)NC(=O)C(CC(=O)Nc2ccc(NC(=O)Nc3ccccc3)cc2)CC(C)C)cc1 (stereo not drawn) [SX23]	1330
CSCCCN(CC(=O)Nc1ccc(NC(=O)Nc2ccccc2)cc1)C(=O)CN(CCC(=O)O)C(=O)c1ccccc1 [AX27]	200
COc1cccc(C(=O)N(CCC(=O)O)CC(=O)N(CCC(C)C)CC(=O)Nc2cccc(OCCOc3ccccc3)c2)c1 [AX13]	3160
Cc1ccccc1NC(=O)Nc1ccc(NC(=O)C2CCCN2C(=O)CCCCC(=O)O)cc1 (stereo not drawn) [CX1]	1350
Cc1ccccc1NC(=O)Nc1ccc(CC(=O)Nc2ccc3c(c2)C(=O)N(C)CC(=O)N3CCC(=O)O)cc1 [BX42]	326
Cc1ccccc1NC(=O)Nc1ccc(CC(=O)Nc2cccc(OCCC(C)C(=O)O)c2)cc1 (stereo not drawn) [RX6]	2590
CC(=O)N(CCCC(=O)O)Cc1cccc(NC(=O)Cc2ccc(NC(=O)Nc3ccccc3C)cc2)c1 [RX20]	250
Cc1ccccc1NC(=O)Nc1ccc(NC(=O)CN(CCC(C)C)C(=O)CN(CCC(=O)O)C(=O)CN2CCOCC2)cc1 [AX42]	52
COc1ccc(C(CC(=O)O)NC(=O)C(CC(=O)Nc2ccc(CCSc3ccccc3C)cc2)CC(C)C)cc1OC (stereo not drawn) [SX32]	660

Same assay, conditions: qualitative statement

SMILES	VLA-4 inhibitory activity
Cc1ccccc1NC(=O)Nc1ccc(NC(=O)CN(C)C(=O)CN(CCC(=O)O)C(=O)c2ccccc2)cc1 [Compound A]	having VLA-4 inhibitory activity
